Experimental data reported in patent publication US7569582B2, “Aminotropane derivatives, preparation thereof and therapeutic use thereof” (Sanofi-Aventis, priority 2004, dated 2009).
Structures can show the parent of a compound that is named as a salt.

Tests used:
human MC4 receptor [1] = molecular target: T1, human MC4 receptor (Homo sapiens, UniProt P32245); assay: Affinity assay: displacement of [125I]-[Nle4,D-Phe7]-α-MSH binding to membranes of CHO-K1 cells expressing hMC4 (SPA); conditions: displacement of specific radioligand binding by 50%; radioligand 100 pM; read-out: IC50 with respect to the MC4 receptor
T1 construct: host or cells: CHO-K1
T1 sequence (P32245 whole entry): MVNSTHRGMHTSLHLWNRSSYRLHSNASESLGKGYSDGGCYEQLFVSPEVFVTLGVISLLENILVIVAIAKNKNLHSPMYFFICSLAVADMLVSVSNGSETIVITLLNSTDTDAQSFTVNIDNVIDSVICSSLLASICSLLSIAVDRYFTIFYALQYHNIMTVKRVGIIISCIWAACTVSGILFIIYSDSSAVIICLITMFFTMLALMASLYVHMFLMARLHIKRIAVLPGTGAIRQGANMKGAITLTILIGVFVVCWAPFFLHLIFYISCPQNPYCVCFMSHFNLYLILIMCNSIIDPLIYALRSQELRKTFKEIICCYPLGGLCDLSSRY
Experimental: This affinity assay is carried out by measuring the binding of [^125I]-[Nle^4-D-Phe^7]-[…]-MSH to cell membranes. The displacement of this radioligand is used to identify inhibitors of the specific binding to recombinant melanocortin receptors.
For this assay, membranes prepared from CHO-K1 cells expressing the human MC4 receptor at high density (Euroscreen) or membranes, that were purchased (Perkin Elmer Life Sciences, Receptor Biology), of HEK-293 cells expressing hMC3 receptors were used. CHO-K1 cells transfected with the hMC4 receptor gene (Euroscreen) are seeded into DMEM/Nutrient Mix F12 culture medium containing 10% foetal calf serum (Biowhittaker), 1% sodium pyruvate, 1% L-glutamine, 1% non-essential amino acids, 0.4 mg/ml geneticin (G418) and 0.5% PenStrep, these products being provided by Gibco/BR1, except the calf serum. At 80% confluency, the cells are scraped off and the cell pellets are frozen at −80° C.
A tube of cells (approximately 70×10^6 cells) is thawed on ice and resuspended in 10 ml of binding buffer [25 mM HEPES, pH 7.0, 1 mM MgCl2, 1.5 mM CaCl2, 100 mM NaCl, 1 mM 1,10-phenanthroline and 1 tablet of Complete^TR (protease inhibitor from Roche) in 50 ml of buffer] using a polytron for 20 seconds. […] The nonspecific binding is defined by NDP-[…]MSH at 10^−7 M. The total binding is measured by the number of counts per minute in the presence of the radioligand alone. […]

human MC4 receptor [2] = molecular target: T1, human MC4 receptor; assay: Functional agonist assay: cAMP formation in CHO-K1 cells expressing the human MC4 receptor; type: cell-based; conditions: 1 hour incubation, 50% of the maximum stimulation obtained with the compound, read-out: EC50 with respect to the MC4 receptor
Experimental: (§1) A functional assay is used to differentiate between the agonist activity and the antagonist activity. For this, the formation of cyclic adenosine monophosphate (cAMP) generated by activation of the MC3 receptor or of the MC4 receptor is assayed.
CHO-K1 cells, expressing the human MC4 receptor at a moderate density (Euroscreen), are seeded into DMEM/Nutrient Mix F12 culture medium (Gibco/BR1) containing 10% of foetal calf serum, 0.5% sodium pyruvate, 1% L-glutamine, 1% non-essential amino acids, 200 mg/l hygromycin B and 0.5% PenStrep, these products being provided by Gibco/BR1, except the calf serum (Biowhittaker) and hygromycin B (Sigma).
(§2) The compounds to be tested (diluted in 10% DMSO), in an amount of 10 μl at a concentration of 10 times the final concentration, are added to the plates of cells (final volume=100 μl/well). After incubation for 1 hour (37° C., 5% CO2), the amount of cAMP is assayed using Tropix kits (Appelera) according to the supplier's documentation. The intrinsic activity of the compounds is calculated by comparing the stimulation of cAMP by these compounds to the stimulation induced by 30 nM of NDP[…]MSH (maximum of 100%). The EC50 value for the compounds corresponds to the concentration which produces 50% of the maximum stimulation obtained with this compound.

human MC3 receptor = molecular target: T2, human MC3 receptor (Homo sapiens, UniProt P41968); assay: Functional agonist assay: cAMP formation in CHO(dhfr-) cells expressing the human MC3 receptor; type: cell-based; conditions: 1 hour incubation, 50% of the maximum stimulation obtained with the compound, read-out: EC50 with respect to the MC3 receptor
T2 construct: expressed in transfected cells; host or cells: CHO(dhfr-)
T2 sequence (P41968 whole entry): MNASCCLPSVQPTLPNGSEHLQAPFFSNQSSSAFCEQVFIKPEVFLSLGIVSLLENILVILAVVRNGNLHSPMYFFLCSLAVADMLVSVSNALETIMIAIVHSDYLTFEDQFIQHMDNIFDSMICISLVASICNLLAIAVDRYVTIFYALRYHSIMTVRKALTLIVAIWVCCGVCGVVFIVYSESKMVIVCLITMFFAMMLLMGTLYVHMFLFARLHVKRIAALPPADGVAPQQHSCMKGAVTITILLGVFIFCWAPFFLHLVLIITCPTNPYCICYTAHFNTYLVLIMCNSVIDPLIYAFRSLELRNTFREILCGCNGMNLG
Experimental: as §1
CHO(dhfr-) cells expressing the human MC3 receptor are seeded into MEM Eagle culture medium (Sigma) containing 10% of dialysed calf serum, 1% L-glutamine, 1% sodium pyruvate, 20 mg/500 ml L-proline, 0.3 mg/ml Geneticin and 0.5% PenStrep, these products being provided by Gibco/BRI, except for the dialysed calf serum (Cambrex) and the L-proline (Sigma).
as §2

melting point	SMILES	other results
220 °C	CCN(CC)C(=O)N(C1CCCCC1)C1CC2CCC(C1)N2C(=O)[C@@H](Cc1ccc(Cl)cc1)NC1CCNC1 (stereo partly shown) (as salt: HCl)	
105 °C	CCN(CC)C(=O)N(C1CCCCC1)C1CC2CCC(C1)N2C(=O)[C@@H](Cc1ccc(Cl)cc1)NCCN (stereo partly shown) (as salt: HCl)	
215 °C	CCN(CC)C(=O)N(C1CCCCC1)C1CC2CCC(C1)N2C(=O)[C@@H](Cc1ccc(Cl)cc1)NCCCN (stereo partly shown) (as salt: HCl)	
132 °C	CCN(CC)C(=O)N(C1CCCCC1)C1CC2CCC(C1)N2C(=O)[C@@H](Cc1ccc(Cl)cc1)NC(C)/C=N/O (stereo partly shown) (as salt: HCl)	
170 °C	CCN(CC)C(=O)N(C1CCCCC1)C1CC2CCC(C1)N2C(=O)[C@@H](Cc1ccc(Cl)cc1)NC1CNC1 (stereo partly shown) (as salt: HCl)	
> 200 °C	CCN(CC)C(=O)N(C1CCCCC1)C1CC2CCC(C1)N2C(=O)[C@@H](Cc1ccc(Cl)cc1)NC1CCSC1 (stereo partly shown) (as salt: HCl)	
	CCN(CC)C(=O)N(C1CCCCC1)C1CC2CCC(C1)N2C(=O)[C@@H](Cc1ccc(Cl)cc1)NC1CCC(N)CC1 (stereo partly drawn) [compound 3, N-{8-[N-(4-aminocyclohexyl)-4-chloro-D-phenylalanyl]-8-azabicyclo[3.2.1]oct-3-yl}-N-cyclohexyl-N′,N′-diethylurea]	IC50 (human MC4 receptor [1]): 0.28 µM; EC50 (human MC4 receptor [2]): 0.028 µM; EC50 (human MC3 receptor): 0.33 µM

SMILES	melting point	other results
CCN(CC)C(=O)N(C1CCCCC1)C1CC2CCC(C1)N2C(=O)[C@@H](Cc1ccc(Cl)cc1)NC1CCC(N)CC1 (stereo partly drawn) (as salt: HCl) [compound 3, N-{8-[N-(4-aminocyclohexyl)-4-chloro-D-phenylalanyl]-8-azabicyclo[3.2.1]oct-3-yl}-N-cyclohexyl-N′,N′-diethylurea]	208 °C	
